Assay results published in US10344264B2, “Culturing of human embryonic stem cells at the air-liquid interface for differentiation into pancreatic endocrine cells” (Janssen Biotech, Inc., priority 2012, dated 2019).
Like-named read-outs stand apart in the source and are kept apart here.

Assays:
[1] = test system: cells of the human embryonic stem cell line H1
Excerpt: At Stage 4 and subsequent cultures, mRNA was collected for PCR analysis of relevant pancreatic endoderm/endocrine genes. Total RNA was extracted with the RNeasy® Mini Kit (Qiagen; Valencia, Calif.) and reverse-transcribed using a High Capacity cDNA Reverse Transcription Kit (Applied Biosystems, Foster City, Calif.) according to manufacturers' instructions. cDNA was amplified using Taqman Universal Master Mix and Taqman Gene Expression Assays which were pre-loaded onto custom Taqman Arrays (Applied Biosystems).
Cells were then cultured for an additional day in MCDB-131 medium supplemented with 2% fatty acid-free BSA, 0.0012 g/ml sodium bicarbonate, 1× GlutaMax™, 4.5 mM D-Glucose, 100 ng/ml GDF8, and 0.1 μM MCX compound. […]

[2] = test system: cells of the human embryonic stem cell line H1; conditions: air-liquid interface; mRNA at Stage 6 day 5 and day 8
Experimental: Cells of the human embryonic stem cell line H1 (passage 42) were seeded as single cells at 1×10^5 cells/cm^2 on […] ™ (1:30 dilution; BD Biosciences, NJ)-coated dishes in a media comprising of DMEM-F12 (Invitrogen, Ca), GlutaMax™ (1:100 dilution, Invitrogen), 0.25 mM ascorbic acid (Sigma, MO), 100 ng/ml of FGF2 (R & D systems, MN), 1 ng/ml of TGF-β (R & D systems), ITS-X (1:100 dilution), 2% fatty-acid free BSA (Lampire, PA), and 20 ng/ml of IGF-1 (R & D systems), supplemented with 10 μM of Y27632 (Rock inhibitor, Catalog No. Y0503, Sigma). Forty-eight hours post-seeding, cultures were washed in incomplete PBS (phosphate buffered saline without Mg or Ca). The cells were then differentiated according to the following protocol: • a) Stage 1 (3 days): Cells were cultured for one day in MCDB-131 medium (Invitrogen Catalog No. 10372-019) supplemented with 2% fatty acid-free BSA (Proliant Catalog No. 68700), 0.0012 g/ml sodium bicarbonate (Sigma-Aldrich Catalog No. S3187); 1× GlutaMax™ (Invitrogen Catalog No. 35050-079); 4.5 mM D-glucose (Sigma-Aldrich Catalog No. G8769); 100 ng/ml GDF8 (R&D Systems); and 1 μM MCX compound. Cells were then cultured for an additional day in MCDB-131 medium supplemented with 2% fatty acid-free BSA, 0.0012 g/ml sodium bicarbonate, 1× GlutaMax™, 4.5 mM D-glucose, 100 ng/ml GDF8, and 0.1 μM MCX compound. […]

[3] = test system: cells of the human embryonic stem cell line H1; remark: listed apart in the source
Experimental: Cells of the human embryonic stem cell line H1 (passage 40) were seeded as single cells at 1×10^5 cells/cm^2 on […] ™ (1:30 dilution; BD Biosciences, NJ)-coated dishes or Matrigel-coated filter inserts (Millipore PIHT 30R 48) in a media comprising of DMEM-F12 (Invitrogen, Ca), Glutamax (1:100 dilution, Invitrogen), 0.25 mM ascorbic acid (Sigma, MO), 100 ng/ml of FGF2 (R & D systems, MN), 1 ng/ml of TGF-B (R & D systems), ITS-X (1:100 dilution), 2% fatty-acid free BSA (Lampire, PA), and 20 ng/ml of IGF-1 (R & D systems), supplemented with 10 μM of Y27632 (Rock inhibitor, Catalog No. Y0503, SigmaAldrich, St. Louis, Mo.). Forty-eight hours post seeding, cultures were washed in incomplete PBS (phosphate buffered saline without Mg or Ca). The cells were then differentiated according to the following protocol: • a) Stage 1 (3 days): Cells were cultured for one day in MCDB-131 medium (Invitrogen Catalog No. 10372-019) supplemented with 2% fatty acid-free BSA (Proliant Catalog No. 68700), 0.0012 g/ml sodium bicarbonate (SigmaAldrich Catalog No. S3187), 1× GlutaMax™ (Invitrogen Catalog No. 35050-079), 4.5 mM D-Glucose (SigmaAldrich Catalog No. G8769), 100 ng/ml GDF8 (R&D Systems) and 1 μM MCX compound. Cells were then cultured for an additional day in MCDB-131 medium supplemented with 2% fatty acid-free BSA, 0.0012 g/ml sodium bicarbonate, 1× GlutaMax™, 4.5 mM D-Glucose, 100 ng/ml GDF8, and 0.1 μM MCX compound. […]

[4] = test system: cells of the human embryonic stem cell line H1; conditions: air-liquid interface, 1000 nM ALK5 inhibitor in Stages 5 and 6
Experimental: Cells of the human embryonic stem cell line H1 (passage 40) were seeded as single cells at 1×10^5 cells/cm^2 on […] ™ (1:30 dilution; BD Biosciences, NJ)-coated dishes in a media comprising DMEM-F12 (Invitrogen, Ca), GlutaMax™ (1:100 dilution, Invitrogen), 0.25 mM ascorbic acid (Sigma, MO), 100 ng/ml of FGF2 (R & D systems, MN), 1 ng/ml of TGF-β (R & D systems), ITS-X (1:100 dilution), 2% fatty-acid free BSA (Lampire, PA), and 20 ng/ml of IGF-1 (R & D systems), supplemented with 10 μM of Y27632 (Rock inhibitor, Catalog No. Y0503, Sigma-Aldrich). Forty-eight hours post-seeding, cultures were washed in incomplete PBS (phosphate buffered saline without Mg or Ca). The cells were then differentiated according to the following protocol: • a. Stage 1 (3 days): Cells were cultured for one day in MCDB-131 medium (Invitrogen Catalog No. 10372-019) supplemented with 2% fatty acid-free BSA (Proliant, Catalog No. 68700); 0.0012 g/ml sodium bicarbonate (Sigma-Aldrich, Catalog No. S3187); 1× GlutaMax™ (Invitrogen, Catalog No. 35050-079); 4.5 mM D-glucose (Sigma-Aldrich, Catalog No. G8769); 100 ng/ml GDF8 (R&D Systems); and 1 μM MCX compound. Cells were then cultured for an additional day in MCDB-131 medium supplemented with: 2% fatty acid-free BSA; 0.0012 g/ml sodium bicarbonate; 1× GlutaMax™; 4.5 mM D-Glucose; 100 ng/ml GDF8; and 0.1 μM MCX compound. […]

[5] = test system: cells of the human embryonic stem cell line H1; assay: Real-time PCR of Stage 6 cells at the air-liquid interface with gamma secretase inhibitor XX (Example 12); assay type: cell-based; conditions: 100 nM to 5000 nM at Stage 6; mRNA at Stage 6 day 4 and day 8
Experimental: This example highlights that NOTCH inhibitors, such as gamma secretase inhibitors, further enhance maturation markers of β cells while retaining expression of NKX6.1.
At Stage 6, various doses (100 nM to 5000 nM) of gamma Secretase inhibitor XX (EMD, #565789) were tested. mRNA was collected at Stage 6 day 4 and Stage 6 day 8. FIG. 21 depicts the PCR data for key β cell maturation markers along with pancreatic progenitor markers.

Row | Structure (SMILES) | insulin expression at Stage 6 as compared to Stage 5 ([1]; cultures at the air-liquid interface) | insulin expression at Stage 6 as compared to Stage 5 ([1]; planar cultures treated at Stage 5 and Stage 6) | expression of MAFA on removal of the inhibitor at Stage 6 [2] | co-expression of NKX6.1 and chromogranin-A (immunostaining) ([3]; Stage 6 cells at the air-liquid interface, 1 micro molar inhibitor) | number of NKX6.1 positive cells co-expressing insulin or chromogranin-A ([3]; filter inserts at the air-liquid interface) | number of NKX6.1 positive cells co-expressing insulin or chromogranin-A ([3]; same protocol on traditional monolayer cultures) | expression of glucagon [4] | expression of insulin [4] | Amylin expression [5] | MAFA expression [5] | NKX6.1 expression [5] | PTF1a expression [5] | SOX9 expression [5] | insulin expression [5]
1 | Cc1cccc(-c2[nH]ncc2-c2ccc3ncccc3n2)n1 [ALK5 inhibitor II] | enhancement | drop | dramatic drop | co-expression of NKX6.1 and chromogranin-A | significantly enhanced | failed to show significant numbers | significantly enhanced | significantly enhanced |  |  |  |  |  | 
2 | C[C@H](NC(=O)Cc1cc(F)cc(F)c1)C(=O)N[C@@H]1C(=O)N(C)c2ccccc2-c2ccccc21 [gamma Secretase inhibitor XX] |  |  |  |  |  |  |  |  | significantly upregulated | significantly upregulated | not significantly affected | significantly down regulated | significantly down regulated | significantly upregulated
